Data as given in patent publication US7058616B1, “Method and system for predicting resistance of a disease to a therapeutic agent using a neural network” (Virco Bvba, priority 2000, dated 2006).

Columns and labels:
HIV-1 [1] = settings: cited from earlier work; for Effect of 333D/E mutation: reverses the M184V effect
HIV-1 [2] = experiment: MT-4 cell viral cytopathic effect protection assay, phenotypic susceptibility of patient recombinant virus; assay type: cell-based
Method: Phenotypic susceptibility was determined using a MT-4 cell viral cytopathic effect protection assay. See, e.g., Kashiwase et al., Chemotherapy 45(1):48–55 (1999), expressly incorporated herein by reference; Larder et al., Antimicrob. Agents Chemother. 43(8):1961–1967 (1999).

[3] = Table 13/14 sample 1: 10I,71V,73S,84V,90M, 63P,85V,93L
[4] = Table 13/14 sample 7: 71V,73S,90M, 20I,63P

Nc1ccn([C@@H]2CS[C@H](CO)O2)c(=O)n1 [3TC]
Effect of M184V mutation on 3TC susceptibility (HIV-1 [1]): confers resistance
Effect of 333D/E mutation (HIV-1 [1]): dual AZT/3TC resistance
actual phenotype resistance level (HIV-1 [2]; Table 3 testing sample 1): S/S (A fold resistance of less than or equal to 4 is considered to be “sensitive,”)
actual phenotype resistance level (HIV-1 [2]; Table 3 testing sample 2): R/R (if the value is greater than 10, it is considered to be “resistant.”)
actual phenotype resistance level (HIV-1 [2]; Table 3 testing sample 3): R/R (if the value is greater than 10, it is considered to be “resistant.”)
actual phenotype resistance level (HIV-1 [2]; Table 3 testing sample 4): S/S (A fold resistance of less than or equal to 4 is considered to be “sensitive,”)
actual phenotype resistance level (HIV-1 [2]; Table 3 testing sample 5): R/R (if the value is greater than 10, it is considered to be “resistant.”)
actual phenotype resistance level (HIV-1 [2]; Table 3 testing sample 6): R (if the value is greater than 10, it is considered to be “resistant.”)
actual phenotype resistance level (HIV-1 [2]; Table 3 testing sample 7): R/R (if the value is greater than 10, it is considered to be “resistant.”)
actual phenotype resistance level (HIV-1 [2]; Table 3 testing sample 8): R/R (if the value is greater than 10, it is considered to be “resistant.”)
actual phenotype resistance level (HIV-1 [2]; Table 3 testing sample 9): R/R (if the value is greater than 10, it is considered to be “resistant.”)
actual phenotype resistance level (HIV-1 [2]; Table 3 testing sample 10): S/S (A fold resistance of less than or equal to 4 is considered to be “sensitive,”)

Cc1cn([C@H]2C[C@H](N=[N+]=[N-])[C@@H](CO)O2)c(=O)[nH]c1=O [AZT, 3′-azido-3′-deoxythymidine]
Effect of M184V mutation on AZT resistance (HIV-1 [1]): reverses AZT resistance
Effect of 333D/E mutation (HIV-1 [1]): dual AZT/3TC resistance

Cc1c(O)cccc1C(=O)N[C@@H](CSc1ccccc1)[C@H](O)CN1C[C@H]2CCCC[C@H]2C[C@H]1C(=O)NC(C)(C)C [Nelfinavir]
actual phenotype resistance level (HIV-1 [2]; PI test sample 2): R/R (if the value is greater than 10, it is considered to be ‘resistant’)
actual phenotype resistance level (HIV-1 [2]; PI test sample 3): R/R (if the value is greater than 10, it is considered to be ‘resistant’)
actual phenotype resistance level (HIV-1 [2]; PI test sample 4): R/R (if the value is greater than 10, it is considered to be ‘resistant’)
actual phenotype resistance level (HIV-1 [2]; PI test sample 5): R/R (if the value is greater than 10, it is considered to be ‘resistant’)
actual phenotype resistance level (HIV-1 [2]; PI test sample 7): R/R (if the value is greater than 10, it is considered to be ‘resistant’)
actual phenotype resistance level (HIV-1 [2]; PI test sample 8): R/R (if the value is greater than 10, it is considered to be ‘resistant’)
actual phenotype resistance level (HIV-1 [2]; PI test sample 9): R/R (if the value is greater than 10, it is considered to be ‘resistant’)
actual phenotype resistance level (HIV-1 [2]; PI test sample 10): R (if the value is greater than 10, it is considered to be ‘resistant’)
actual phenotype resistance level (HIV-1 [2]; PI test sample 11): I/I (greater than 4 and less than 10 is considered to be ‘intermediate’)
actual phenotype resistance level (HIV-1 [2]; PI test sample 13): R/R (if the value is greater than 10, it is considered to be ‘resistant’)
actual phenotype resistance level (HIV-1 [2]; PI test sample 14): R/R (if the value is greater than 10, it is considered to be ‘resistant’)
actual phenotype resistance level (HIV-1 [2]; PI test sample 15): R/R (if the value is greater than 10, it is considered to be ‘resistant’)
actual phenotype resistance level (HIV-1 [2]; PI test sample 16): R/R (if the value is greater than 10, it is considered to be ‘resistant’)
actual phenotype resistance level (HIV-1 [2]; PI test sample 17): R/R (if the value is greater than 10, it is considered to be ‘resistant’)
actual phenotype resistance level (HIV-1 [2]; PI test sample 18): R/R (if the value is greater than 10, it is considered to be ‘resistant’)
actual phenotype resistance level (HIV-1 [2]; PI test sample 19): R (if the value is greater than 10, it is considered to be ‘resistant’)
actual phenotype resistance level (HIV-1 [2]; PI test sample 19, listed as NFV): R/R (if the value is greater than 10, it is considered to be ‘resistant’)
actual phenotype resistance level (HIV-1 [2]; PI test sample 20): R/R (if the value is greater than 10, it is considered to be ‘resistant’)
actual phenotype resistance level (HIV-1 [2]; PI test sample 21): R/R (if the value is greater than 10, it is considered to be ‘resistant’)
actual phenotype resistance level (HIV-1 [2]; PI test sample 22): R (if the value is greater than 10, it is considered to be ‘resistant’)
actual phenotype resistance level (HIV-1 [2]; PI test sample 23): R/R (if the value is greater than 10, it is considered to be ‘resistant’)
actual phenotype resistance level (HIV-1 [2]; PI test sample 24): R/R (if the value is greater than 10, it is considered to be ‘resistant’)
actual phenotype resistance level (HIV-1 [2]; PI test sample 25): R/R (if the value is greater than 10, it is considered to be ‘resistant’)
actual phenotype resistance level (HIV-1 [2]; PI test sample 26): R/R (if the value is greater than 10, it is considered to be ‘resistant’)
actual phenotype resistance level (HIV-1 [2]; PI test sample 32): R/R (if the value is greater than 10, it is considered to be ‘resistant’)
actual phenotype resistance level (HIV-1 [2]; PI test sample 33): R/R (if the value is greater than 10, it is considered to be ‘resistant’)
actual phenotype resistance level (HIV-1 [2]; PI test sample 34): R/R (if the value is greater than 10, it is considered to be ‘resistant’)
actual phenotype resistance level (HIV-1 [2]; PI test sample 35): R/R (if the value is greater than 10, it is considered to be ‘resistant’)
actual phenotype resistance level (HIV-1 [2]; PI test sample 36): R/R (if the value is greater than 10, it is considered to be ‘resistant’)
actual phenotype resistance level (HIV-1 [2]; PI test sample 37): R/R (if the value is greater than 10, it is considered to be ‘resistant’)
actual phenotype resistance level (HIV-1 [2]; PI test sample 38): R/R (if the value is greater than 10, it is considered to be ‘resistant’)
actual phenotype resistance level (HIV-1 [2]; PI test sample 39): R/R (if the value is greater than 10, it is considered to be ‘resistant’)
actual phenotype resistance level (HIV-1 [2]; PI test sample 40): R/R (if the value is greater than 10, it is considered to be ‘resistant’)
actual phenotype resistance level (HIV-1 [2]; PI test sample 41): R/R (if the value is greater than 10, it is considered to be ‘resistant’)
actual phenotype resistance level (HIV-1 [2]; PI test sample 42): I/I (greater than 4 and less than 10 is considered to be ‘intermediate’)
actual phenotype resistance level (HIV-1 [2]; PI test sample 44): R/R (if the value is greater than 10, it is considered to be ‘resistant’)
actual phenotype resistance level (HIV-1 [2]; PI test sample 45): R/R (if the value is greater than 10, it is considered to be ‘resistant’)
actual phenotype resistance level (HIV-1 [2]; Table 3 testing sample 1): S/S (A fold resistance of less than or equal to 4 is considered to be “sensitive,”)
actual phenotype resistance level (HIV-1 [2]; Table 3 testing sample 4): R/R (if the value is greater than 10, it is considered to be “resistant.”)
actual phenotype resistance level (HIV-1 [2]; Table 3 testing sample 5): R/R (if the value is greater than 10, it is considered to be “resistant.”)
actual phenotype resistance level (HIV-1 [2]; Table 3 testing sample 6): R/R (if the value is greater than 10, it is considered to be “resistant.”)
actual phenotype resistance level (HIV-1 [2]; Table 3 testing sample 7): S/S (A fold resistance of less than or equal to 4 is considered to be “sensitive,”)
actual phenotype resistance level (HIV-1 [2]; Table 3 testing sample 8): R/R (if the value is greater than 10, it is considered to be “resistant.”)
actual phenotype resistance level (HIV-1 [2]; Table 3 testing sample 10): R/R (if the value is greater than 10, it is considered to be “resistant.”)
actual phenotype (HIV-1 [2]; [3]): R (if the value is greater than 10, it is considered to be ‘resistant’)
actual phenotype (HIV-1 [2]; Table 13/14 sample 3: 10I, 36V,93L): R (if the value is greater than 10, it is considered to be ‘resistant’)
actual phenotype (HIV-1 [2]; Table 13/14 sample 5: 10V,30N, 13V,63P): R (if the value is greater than 10, it is considered to be ‘resistant’)
actual phenotype (HIV-1 [2]; [4]): R (if the value is greater than 10, it is considered to be ‘resistant’)
actual phenotype (HIV-1 [2]; Table 13/14 sample 10: 46I,71V,73S,90M, 20I,63P,93L): R (if the value is greater than 10, it is considered to be ‘resistant’)
actual phenotype (HIV-1 [2]; Table 13/14 sample 18: 36I,71T,90M, 63P,93L): R (if the value is greater than 10, it is considered to be ‘resistant’)
actual phenotype (HIV-1 [2]; Table 13/14 sample 20: 77I,88S, 13V, 63P, 93L): R (if the value is greater than 10, it is considered to be ‘resistant’)

CC(C)c1nc(CN(C)C(=O)N[C@H](C(=O)N[C@@H](Cc2ccccc2)C[C@H](O)[C@H](Cc2ccccc2)NC(=O)OCc2cncs2)C(C)C)cs1 [Ritonavir]
actual phenotype (HIV-1 [2]; Table 13/14 sample 2: 10I,46I,48V,77I,82A,90M, 10E,58E,63T): S (A fold resistance of less than or equal to 4 is considered to be ‘sensitive’)
actual phenotype (HIV-1 [2]; Table 13/14 sample 6: 10I,48V,54V,82A, 13V): R (if the value is greater than 10, it is considered to be ‘resistant’)
actual phenotype (HIV-1 [2]; [4]): I (greater than 4 and less than 10 is considered to be ‘intermediate’)
actual phenotype (HIV-1 [2]; Table 13/14 sample 14: 10I,46I,71T,77I,90M, 57K,63P,93L): S (A fold resistance of less than or equal to 4 is considered to be ‘sensitive’)
actual phenotype (HIV-1 [2]; Table 13/14 sample 17: 46I,77I,90M, 10F,20L,63P): I (greater than 4 and less than 10 is considered to be ‘intermediate’)

CC(C)(C)NC(=O)[C@@H]1C[C@@H]2CCCC[C@@H]2CN1C[C@@H](O)[C@H](Cc1ccccc1)NC(=O)[C@H](CC(N)=O)NC(=O)c1ccc2ccccc2n1 [Saquinavir]
actual phenotype (HIV-1 [2]; [3]): R (if the value is greater than 10, it is considered to be ‘resistant’)
actual phenotype (HIV-1 [2]; Table 13/14 sample 9: 10I,46L,54V,71V,82A,90M, 63P,93L): S (A fold resistance of less than or equal to 4 is considered to be ‘sensitive’)
actual phenotype (HIV-1 [2]; Table 13/14 sample 11: 10I,46L,54V,71V,77I,82A,90M, 55R,58E,63P,93L): R (if the value is greater than 10, it is considered to be ‘resistant’)
actual phenotype (HIV-1 [2]; Table 13/14 sample 19: 54V,71V,82A, 63P,93L): I (greater than 4 and less than 10 is considered to be ‘intermediate’)
